According to ChEMBL document CHEMBL4311961, “Inhaled Janus Kinase (JAK) inhibitors for the treatment of asthma” (Bioorg Med Chem Lett, 2019):
In brackets after ≈: the same amount, converted by molar mass.

Tests used:
[1] = Dissociation constant, pKa of compound; type: physicochemical
[2] = test system: Mus musculus; test: In vivo inhibition of IL13 induced STAT6 phosphorylation in mouse lung administered as i.t dose relative to ocntrol; type: functional
[3] = test system: Rattus norvegicus; test: In vivo inhibition of eosinophils in rat bronchoalveolar lavage fluid at 0.6 ug/kg administered as dry powder inhalation relative to control; type: functional; conditions: inhaled or nasal
[4] = test system: Rattus norvegicus; test: In vivo inhibition of eosinophils in rat bronchoalveolar lavage fluid at 4.76 ug/kg administered as dry powder inhalation relative to control; type: functional; conditions: inhaled or nasal
[5] = Kinetic solubility of the compound at pH 7.4; type: physicochemical; conditions: buffer, read-out: Kinetic_solubility
[6] = Apparent permeability from apical to basolateral side in MDCK cells; type: ADME, cell-based, Canis lupus familiaris; conditions: dog
[7] = molecular target: Janus Kinase (JAK) (Homo sapiens) (UniProt P52333+P23458+O60674+P29597)
Description: Binding affinity to JAK in human PBMC assessed as half life measured after compound washout was out

## CCc1cc(O)c(F)cc1-c1ccc2c(-c3nc4c([nH]3)CCN(C3CCN(C)CC3)C4)n[nH]c2c1
[1]
  pKa: 10.5
[2]
  inhibition (INH): 60%

## COC[C@H](C(=O)Nc1cccc2c(-c3nc(Nc4cccc(S(C)(=O)=O)c4F)ncc3F)c[nH]c12)N1CCN(C)CC1 [LONDAMOCITINIB]
[3]
  inhibition in vivo at 0.0006 mg/kg: 68%
[4]
  inhibition in vivo at 0.00476 mg/kg: 61%

## CN(CCC#N)C1CCN(C(=O)Cn2cc(NC(=O)c3cnn4cccnc34)c(-c3cc(Cl)ccc3OC(F)F)n2)CC1
[5]
  solubility kinetic: 34 µM (≈ 20.8 µg/mL)
[6]
  Papp A→B: 2.7 ×10⁻⁶ cm/s

## CCc1cc(O)c(F)cc1-c1ccc2c(-c3nc4c([nH]3)CCN(C(=O)c3cnc(N5CCCCC5)cn3)C4)n[nH]c2c1
[7]
  T1/2: 9 h
